The results in this text go back to patent US20210299116A1, “METHODS FOR REDUCING ABNORMAL SCAR FORMATION” (CORNELL UNIVERSITY, priority 2018, published 2021).

“Also recorded” adds a separate entry of the source.

The test system of test [1] is smooth muscle actin (SMA) in fibroblasts. The test is described as follows: TGF-β induced smooth muscle actin (SMA) in fibroblasts (Western blot, immunohistochemistry). Format: cell-based. The conditions noted are these: TGF-β stimulated fibroblasts. An excerpt:
Scar contracture is a painful aspect of hypertrophic scarring due to increased SMA in the fibroblasts. During the inflammatory phase of wound healing, the cytokine transforming growth factor β (TGF-β) is secreted and can activate fibroblasts to produce SMA.
(A western blot detects proteins with antibodies after separation by electrophoresis.)

The test system of the next test is HLF cells (fibroblasts). The test is described as follows: in vitro gel contraction assay. Format: cell-based. The conditions noted are these: for TGF-β induced fibroblast contracture (gel contraction): TGF-β + RXD, 48 hour incubation. The protocol: Evaluation of fibroblasts contractility was performed as previously described by […] et al (Bio-protocol 8(18): e3021, 2018). Briefly, HLF cells are resuspended in 1 mg/ml collagen and then pipetted into 24 well plates. Collagen is allowed to solidify for 30 minutes at room temperature. Media (500 μl) is then added to each of the wells and the gels are dissociated from the walls of the well. Gels are treated and allowed to incubate for 48 hours at 37° C. and 5% CO2. After the 48 hour incubation, gels are stained with crystal violet stain in order to better visualize contraction. Images are analyzed using Image J software and the fold change compared to a no cell control is determined.

The subject of test [2] is incisional wound in C57bl/6 mice. The experiment in a line: rodent incisional wound model, incision sutured with silk imbedded with drug. Format: in vivo, mouse. An excerpt: As there are no murine models for hypertrophic or keloid scarring, the inventors relied on a classic rodent incisional wound model consisting of a longitudinal para-vertebral incision 1-2 cm long through the entire thickness of the skin and cutaneous muscle. Wounds (WD) and size matched pieces of dorsal dermis (CTR) were excised and processed for light and polarized light microscopy: fixation, embedding, sectioning and stained with hematoxylin-eosin (inflammatory cells) and Gomori Trichrome (collagen staining), tensile strength measurements and qPCR.
In some experiments, a drug was delivered locally and directly to the wound. In some embodiments, the drug was impregnated in the wound closure material, silk suture. In some experiments, the drug was eluted into the wound during wound healing leading to closure and scar formation. Wound healing was monitored over 14 days.
Wounds (WD) and size matched pieces of dorsal dermis (CTR) were excised and processed for light microscopy: fixation, embedding, sectioning and stained with hematoxylin-eosin (inflammatory cells) and Gomori Trichrome (collagen staining).
Using wild type C57bl/6 mice, wound healing experiments were next performed where the incision was sutured with silk imbedded with ketotifen, a mast cell stabilizer. This way the drug could be delivered continuously and locally during wound healing.

The mark [3] stands for this setting: 14 days post-incision, C57bl/6 mice, ketotifen-impregnated silk vs untreated silk.

For `Cc1nc(C(=O)NCC(=O)O)c(O)c2ccc(Oc3ccccc3)cc12` [RXD, N-[(4-hydroxy-1-methyl-7-phenoxyisoquinolin-3-yl)carbonyl]glycine], the “SMA staining of fibroblasts (immunohistochemistry)” value in test [1] is given as “inhibited”. Also, the “abundance of TGF-β induced SMA in fibroblasts (Western blot)” value in test [1] is “inhibited”; in test [1] (listed as Roxadustat) it was “significantly reduces”. Besides, in the test on HLF cells (fibroblasts) (RXD added alone, vs control), the “fibroblast gel contraction, change from control” value was “significant changes”. Besides, the “TGF-β induced fibroblast contracture (gel contraction)” value with HLF cells (fibroblasts) is listed as “inhibited”; with HLF cells (fibroblasts) (listed as Roxadustat) it was “significantly reduces”.
For the compound `CN1CCC(=C2c3ccccc3CC(=O)c3sccc32)CC1` [ketotifen], the “relative abundance of newly synthesized collagen III mRNA in excised wound scar (q-PCR)” value in test [2] (14-day, drug group compared to untreated) was “significantly less”. Moreover, the “inflammatory response to the incisional wound (immune cells in H&E stained scar)” value in test [2] (7 days post-incision, C57bl/6 mice, ketotifen eluted from silk suture vs untreated wound) is recorded as “lessens the inflammatory response”. In test [2] (setting [3]), the “scar collagen content (Gomori trichrome stain)” value is given as “decreases” and the “scar width (Gomori trichrome stain)” value is given as “significantly less; also recorded: decreases”. In test [2] (14 days post-incision, ketotifen-treated vs untreated mice), the “tensile strength of the scar (peak tension, tensitometry)” value is “not affected”. For the same compound, the “newly synthesized collagen III in wound scar (birefringence microscopy)” value in test [2] (ketotifen eluted from suture vs suture alone) is “less newly synthesized collagen III; also recorded: decreases newly synthesized collagen (III)”.
